Earlier results in patent US10188772B2, “Drug delivery medical device” (Micell Technologies, Inc., priority 2012, dated 2019).

Molecular target: FKBP12 (Homo sapiens, UniProt P62942)
Sequence (P62942 whole entry, species assumed): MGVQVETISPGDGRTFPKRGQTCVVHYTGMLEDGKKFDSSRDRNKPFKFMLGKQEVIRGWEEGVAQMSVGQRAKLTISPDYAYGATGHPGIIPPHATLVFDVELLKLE

| SMILES | FKBP12 binding |
| --- | --- |
| CO[C@H]1C[C@@H]2CC[C@@H](C)[C@@](O)(O2)C(=O)C(=O)N2CCCC[C@H]2C(=O)O[C@H]([C@H](C)C[C@@H]2CC[C@@H](OC(=O)C(C)(CO)CO)[C@H](OC)C2)CC(=O)[C@H](C)/C=C(\C)[C@@H](O)[C@@H](OC)C(=O)[C@H](C)C[C@H](C)/C=C/C=C/C=C/1C [Temsirolimus, 42-[3-hydroxy-2-(hydroxymethyl)-2-methylpropanoate]rapamycin] | about the same as Sirolimus |
| CO[C@H]1C[C@@H]2CC[C@@H](C)[C@@](O)(O2)C(=O)C(=O)N2CCCC[C@H]2C(=O)O[C@H]([C@H](C)C[C@@H]2CC[C@@H](OCCO)[C@H](OC)C2)CC(=O)[C@H](C)/C=C(\C)[C@@H](O)[C@@H](OC)C(=O)[C@H](C)C[C@H](C)/C=C/C=C/C=C/1C [Everolimus, 40-O-(2-Hydroxyethyl)rapamycin] | 1.8 to 2.6 nM |
| CO[C@H]1C[C@@H]2CC[C@@H](C)[C@@](O)(O2)C(=O)C(=O)N2CCCC[C@H]2C(=O)O[C@H]([C@H](C)C[C@@H]2CC[C@H](n3cnnn3)[C@H](OC)C2)CC(=O)[C@H](C)/C=C(\C)[C@@H](O)[C@@H](OC)C(=O)[C@H](C)C[C@H](C)/C=C/C=C/C=C/1C [Zotarolimus] | 2.0 to 3.2 nM |
| CC[C@@H]1/C=C(\C)C[C@H](C)C[C@H](OC)[C@H]2O[C@@](O)(C(=O)C(=O)N3CCCC[C@H]3C(=O)O[C@H](/C(C)=C/[C@@H]3CC[C@H](Cl)[C@H](OC)C3)[C@H](C)[C@@H](O)CC1=O)[C@H](C)C[C@@H]2OC [Pimecrolimus] | about 1.2 nM |
| C=CC[C@@H]1/C=C(\C)C[C@H](C)C[C@H](OC)[C@H]2O[C@@](O)(C(=O)C(=O)N3CCCC[C@H]3C(=O)O[C@H](/C(C)=C/[C@@H]3CC[C@@H](O)[C@H](OC)C3)[C@H](C)[C@@H](O)CC1=O)[C@H](C)C[C@@H]2OC [Tacrolimus] | 0.2 to 0.4 nM |
